Experimental findings from article PMC10965668, “Combined use of multiparametric high-content-screening and in vitro circadian reporter assays in neurotoxicity evaluation” (Archives of Toxicology, 2024) are described below.

The experiment deals with U87 MG/PER2-dLuc cells. The experiment is described as follows: cellular circadian rhythm assay with neurotoxicants in the presence of antioxidants. Type of experiment: cell-based, human. The method, then:
Briefly, cultured U87 MG/PER2 -dLuc cells were seeded in 35-mm dishes at 3 × 10^5 cells/dish and incubated until 70–80% confluency was reached. The cells were FBS-starved for three days at 70% confluency and then synchronized with 50% horse serum (16050122; Gibco) (Balsalobre et al. [1998]). After decanting and washing, recording medium (EMEM with 20% of growing medium containing 5% FBS, 6.5 mM sodium bicarbonate, 10 mM HEPES buffer [pH 7.2], 0.1 mM luciferin [E1602; Promega], and 50 U/mL penicillin and 50 µg/mL streptomycin) was added. Subsequently, the cells were treated with each compound. The 35-mm dishes were sealed with a sterile glass cover slide using silicon grease and subjected to continuous monitoring with a LumiCycle 32™ (Actimetrics) for 5 days. The analytical method was optimized according to the instruction manual of the LumiCycle Analysis Software (Actimetrics). Using this software, data were detrended (running average), and best fits to a sine wave were estimated using the Levenberg–Marquardt algorithm for period, phase, amplitude, and damping rate measurements, as previously reported (Chen et al. [2012]; Fang et al. [2015], [2017]).
The cellular circadian rhythm was recorded as described above.

As to `CC(=O)N[C@@H](CS)C(=O)O` [NAC, N-acetyl-L-cysteine], the “restoration of circadian rhythm disrupted by CPF” value (1.5 µM CPF, 20 µM NAC, 12.5 µM (or 25 µM) MSC) is listed as “restored the circadian rhythm”. The “effect on circadian rhythm disrupted by MHg” value (2.0 µM MHg, co-treatment with NAC and MSC) is “reduced the first high-altitude peak”. The “restoration of cellular rhythm disrupted by DDT” value (10 µM DDT, co-treatment with NAC (10 or 20 µM) or MSC (12.5 or 25 µM)) was “restored the cellular rhythm”. In addition, the “restoration of MPP + -disrupted rhythmicity” value (MPP + at LOAEL, restored rhythm not similar to that of control cells) is “restore the cellular circadian rhythm to a certain extent”.
